Experimental data as given in ChEMBL document CHEMBL3600314, “Discovery and characterization of a potent and selective EP4 receptor antagonist” (Bioorg Med Chem Lett, 2015).
The source made the active and inactive calls. The calls are words filed in the database; no cut-off is given here.

Legend:
[1] = molecular target: T1, Prostaglandin E2 receptor EP2 subtype (Homo sapiens, UniProt P43116); test: Antagonist activity at recombinant human EP2 receptor expressed in CHO cells assessed as inhibition of PGE2-stimulated cAMP accumulation at 1 uM by scintillation proximity assay in presence of [125I]-cAMP; format: functional, cell-based
[2] = molecular target: T1, Prostaglandin E2 receptor EP2 subtype; test: Agonist activity at recombinant human EP2 receptor expressed in CHO cells assessed as induction of cAMP accumulation at 1 uM after 15 mins by scintillation proximity assay in presence of [125I]-cAMP; format: functional, cell-based
[3] = molecular target: Prostaglandin E synthase (Homo sapiens) (UniProt O14684); test: Inhibition of microsomal PGES-1 (unknown origin) up to 62.5 uM
Cytochrome P450 1A2 = Cytochrome P450 1A2 (Homo sapiens, UniProt P05177); test: Inhibition of CYP1A2 (unknown origin); format: ADME
Cytochrome P450 2B6 = Cytochrome P450 2B6 (Homo sapiens, UniProt P20813); test: Inhibition of CYP2B6 (unknown origin); format: ADME
Cytochrome P450 2C19 = Cytochrome P450 2C19 (Homo sapiens, UniProt P33261); test: Inhibition of CYP2C19 (unknown origin); format: ADME
Cytochrome P450 2C8 = Cytochrome P450 2C8 (Homo sapiens, UniProt P10632); test: Inhibition of CYP2C8 (unknown origin); format: ADME
Cytochrome P450 2C9 = Cytochrome P450 2C9 (Homo sapiens, UniProt P11712); test: Inhibition of CYP2C9 (unknown origin); format: ADME
Cytochrome P450 2D6 = Cytochrome P450 2D6 (Homo sapiens, UniProt P10635); test: Inhibition of CYP2D6 (unknown origin); format: ADME
Cytochrome P450 3A4 = Cytochrome P450 3A4 (Homo sapiens, UniProt P08684); test: Inhibition of CYP3A4 (unknown origin); format: ADME
[4] = molecular target: Adenosine receptor A3 (Homo sapiens) (UniProt P0DMS8); test: Inhibition of human adenosine A3 receptor at 10 uM relative to control
[5] = molecular target: Adrenergic receptor alpha-1 (Rattus norvegicus) (UniProt P15823+P23944+P43140); test: Inhibition of rat adrenergic alpha1 receptor at 10 uM relative to control
[6] = molecular target: Adrenergic receptor alpha-2 (Rattus norvegicus) (UniProt P22086+P19328+P22909); test: Inhibition of rat adrenergic alpha2 receptor at 10 uM relative to control
[7] = molecular target: Beta-1 adrenergic receptor (Homo sapiens) (UniProt P08588); test: Inhibition of human adrenergic beta1 receptor at 10 uM relative to control
[8] = molecular target: Beta-2 adrenergic receptor (Homo sapiens) (UniProt P07550); test: Inhibition of human adrenergic beta2 receptor at 10 uM relative to control
[9] = molecular target: D(1A) dopamine receptor (Homo sapiens) (UniProt P21728); test: Inhibition of human dopamine D1 receptor at 10 uM relative to control
[10] = molecular target: D(2) dopamine receptor (Homo sapiens) (UniProt P14416); test: Inhibition of human dopamine D2S receptor at 10 uM relative to control
[11] = molecular target: Histamine H1 receptor (Homo sapiens) (UniProt P35367); test: Inhibition of human histamine H1 receptor at 10 uM relative to control
[12] = molecular target: Muscarinic acetylcholine receptor M2 (Homo sapiens) (UniProt P08172); test: Inhibition of human muscarinic M2 receptor at 10 uM relative to control
[13] = molecular target: Muscarinic acetylcholine receptor M3 (Homo sapiens) (UniProt P20309); test: Inhibition of human muscarinic M3 receptor at 10 uM relative to control
[14] = molecular target: Mu-type opioid receptor (Homo sapiens) (UniProt P35372); test: Inhibition of human mu opioid receptor at 10 uM relative to control
[15] = molecular target: 5-hydroxytryptamine receptor 2B (Homo sapiens) (UniProt P41595); test: Inhibition of human 5-HT2B receptor at 10 uM relative to control
[16] = molecular target: L-type calcium channel dihydropyridine binding site (Homo sapiens, UniProt O60840+Q01668+Q13698+Q13936); test: Inhibition of L-type calcium channel dihydropyridine binding site (unknown origin) at 10 uM relative to control; format: protein assay
[17] = molecular target: L-type calcium channel diltiazem binding site (Homo sapiens, UniProt O60840+Q01668+Q13698+Q13936); test: Inhibition of L-type calcium channel diltiazem binding site (unknown origin) at 10 uM relative to control; format: protein assay
[18] = molecular target: L-type calcium channel verapamil binding site (Homo sapiens, UniProt O60840+Q01668+Q13698+Q13936); test: Inhibition of L-type calcium channel verapamil binding site (unknown origin) at 10 uM relative to control; format: protein assay
Rattus norvegicus = species: Rattus norvegicus; test: Inhibition of rat chloride channel at 10 uM relative to control
[19] = molecular target: Sodium-dependent noradrenaline transporter (Homo sapiens) (UniProt P23975); test: Inhibition of human NE transporter at 10 uM relative to control
[20] = molecular target: Voltage-gated inwardly rectifying potassium channel KCNH2 (Homo sapiens, UniProt Q12809); test: Displacement of [3H]-astemizole from human ERG up to 100 uM
[21] = Solubility of the compound in FasSIF; format: physicochemical
[22] = Solubility of the compound in FedSIF; format: physicochemical; conditions: FeSSIF
[23] = Solubility of the compound in SGF; format: physicochemical
[24] = Tmax in Beagle dog at 10 mg/kg, po; format: ADME, organism-based, Canis lupus familiaris; conditions: in vivo
[25] = Oral bioavailability in Beagle dog at 10 mg/kg; format: ADME, organism-based, Canis lupus familiaris; conditions: in vivo
[26] = Clearance in Beagle dog at 10 mg/kg, po and 1 mg/kg, iv; format: ADME, organism-based, Canis lupus familiaris; conditions: in vivo
[27] = Plasma concentration in Beagle dog at 10 mg/kg, po measured over 12 hrs; format: ADME, organism-based, Canis lupus familiaris
[28] = Plasma concentration in Beagle dog at 10 mg/kg, po measured over 24 hrs; format: ADME, organism-based, Canis lupus familiaris
[29] = molecular target: Prostaglandin E2 receptor EP1 subtype (Homo sapiens, UniProt P34995); test: Displacement of [3H]-PGE2 from human EP1 receptor by liquid scintillation counting analysis
[30] = molecular target: T1, Prostaglandin E2 receptor EP2 subtype; test: Displacement of [3H]-PGE2 from human EP2 receptor by liquid scintillation counting analysis
[31] = molecular target: Prostaglandin E2 receptor EP3 subtype (Homo sapiens, UniProt P43115); test: Displacement of [3H]-PGE2 from human EP3 receptor by liquid scintillation counting analysis
[32] = molecular target: T2, Prostaglandin E2 receptor EP4 subtype (Homo sapiens, UniProt P35408); test: Displacement of [3H]-PGE2 from recombinant human EP4 receptor expressed in HEK293 cell membranes after 90 mins by liquid scintillation counting analysis
[33] = molecular target: T2, Prostaglandin E2 receptor EP4 subtype; test: Antagonist activity at recombinant human EP4 receptor expressed in HEK293 cells assessed as inhibition of PGE2-stimulated cAMP accumulation by scintillation proximity assay in presence of [125I]-cAMP; format: functional, cell-based
[34] = molecular target: T2, Prostaglandin E2 receptor EP4 subtype; test: Antagonist activity at EP4 receptor in LPS-stimulated human whole blood assessed as inhibition of PGE2-induced TNF-alpha reduction preincubated for 30 mins followed by PGE2 addition measured after 24 hrs by ELISA

T2 sequence (P35408 whole entry): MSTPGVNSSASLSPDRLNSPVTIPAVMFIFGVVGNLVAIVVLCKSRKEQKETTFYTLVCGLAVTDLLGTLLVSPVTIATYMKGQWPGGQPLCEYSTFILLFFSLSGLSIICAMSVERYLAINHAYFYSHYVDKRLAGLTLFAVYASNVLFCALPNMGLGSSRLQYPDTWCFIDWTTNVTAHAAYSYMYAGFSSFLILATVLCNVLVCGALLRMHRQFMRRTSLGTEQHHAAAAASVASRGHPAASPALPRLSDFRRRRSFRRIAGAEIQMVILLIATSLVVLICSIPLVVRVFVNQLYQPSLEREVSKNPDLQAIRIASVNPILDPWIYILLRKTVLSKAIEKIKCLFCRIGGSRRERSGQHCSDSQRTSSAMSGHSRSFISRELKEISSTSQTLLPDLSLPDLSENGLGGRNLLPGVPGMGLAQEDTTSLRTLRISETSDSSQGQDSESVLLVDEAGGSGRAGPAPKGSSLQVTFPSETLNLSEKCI
T1 sequence (P43116 whole entry): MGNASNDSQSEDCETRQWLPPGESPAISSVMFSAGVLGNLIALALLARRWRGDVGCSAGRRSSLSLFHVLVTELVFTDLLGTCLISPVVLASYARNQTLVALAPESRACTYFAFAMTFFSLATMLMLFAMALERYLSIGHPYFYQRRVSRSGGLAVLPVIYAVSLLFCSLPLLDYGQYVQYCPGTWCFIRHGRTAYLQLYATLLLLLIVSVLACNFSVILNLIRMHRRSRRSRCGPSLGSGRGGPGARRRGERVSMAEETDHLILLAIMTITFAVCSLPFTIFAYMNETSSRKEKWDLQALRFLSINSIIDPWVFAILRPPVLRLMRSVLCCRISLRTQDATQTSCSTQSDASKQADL
Prostaglandin E2 receptor EP3 subtype, sequence (P43115 whole entry): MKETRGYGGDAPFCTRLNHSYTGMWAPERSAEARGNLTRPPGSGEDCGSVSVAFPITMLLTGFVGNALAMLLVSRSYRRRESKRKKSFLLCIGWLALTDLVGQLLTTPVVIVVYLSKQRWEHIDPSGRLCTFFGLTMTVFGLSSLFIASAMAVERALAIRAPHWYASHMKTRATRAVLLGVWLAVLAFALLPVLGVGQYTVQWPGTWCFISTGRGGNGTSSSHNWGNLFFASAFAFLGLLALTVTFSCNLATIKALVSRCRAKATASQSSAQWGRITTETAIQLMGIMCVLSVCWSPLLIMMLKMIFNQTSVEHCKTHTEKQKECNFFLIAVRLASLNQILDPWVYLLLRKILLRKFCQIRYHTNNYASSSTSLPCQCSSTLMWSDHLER
Prostaglandin E2 receptor EP1 subtype, sequence (P34995 whole entry): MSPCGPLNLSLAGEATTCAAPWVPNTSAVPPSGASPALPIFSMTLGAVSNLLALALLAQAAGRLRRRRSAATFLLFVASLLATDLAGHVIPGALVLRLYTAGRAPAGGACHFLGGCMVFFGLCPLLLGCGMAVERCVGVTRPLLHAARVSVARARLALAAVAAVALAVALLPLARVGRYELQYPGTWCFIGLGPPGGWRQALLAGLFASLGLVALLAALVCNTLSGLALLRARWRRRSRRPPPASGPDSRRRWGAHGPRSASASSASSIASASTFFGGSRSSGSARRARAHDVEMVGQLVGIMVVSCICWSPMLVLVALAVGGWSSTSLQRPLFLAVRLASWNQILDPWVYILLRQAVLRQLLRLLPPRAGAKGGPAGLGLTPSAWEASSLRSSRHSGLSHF
Cytochrome P450 2C8, sequence (P10632 whole entry): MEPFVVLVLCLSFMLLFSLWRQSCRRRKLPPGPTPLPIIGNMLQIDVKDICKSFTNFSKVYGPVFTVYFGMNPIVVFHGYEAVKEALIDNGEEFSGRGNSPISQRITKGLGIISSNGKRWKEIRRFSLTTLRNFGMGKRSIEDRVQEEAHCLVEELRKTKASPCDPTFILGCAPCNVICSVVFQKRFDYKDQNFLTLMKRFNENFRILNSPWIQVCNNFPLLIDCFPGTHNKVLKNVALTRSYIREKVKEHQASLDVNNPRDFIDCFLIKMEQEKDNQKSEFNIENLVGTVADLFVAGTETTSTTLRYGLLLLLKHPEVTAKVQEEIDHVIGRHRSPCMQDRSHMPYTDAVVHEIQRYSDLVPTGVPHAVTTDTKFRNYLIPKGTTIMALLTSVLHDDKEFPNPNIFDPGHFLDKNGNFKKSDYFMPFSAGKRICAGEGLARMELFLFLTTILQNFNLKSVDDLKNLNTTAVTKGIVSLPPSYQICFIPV
Muscarinic acetylcholine receptor M2 (Homo sapiens), sequence (P08172 whole entry): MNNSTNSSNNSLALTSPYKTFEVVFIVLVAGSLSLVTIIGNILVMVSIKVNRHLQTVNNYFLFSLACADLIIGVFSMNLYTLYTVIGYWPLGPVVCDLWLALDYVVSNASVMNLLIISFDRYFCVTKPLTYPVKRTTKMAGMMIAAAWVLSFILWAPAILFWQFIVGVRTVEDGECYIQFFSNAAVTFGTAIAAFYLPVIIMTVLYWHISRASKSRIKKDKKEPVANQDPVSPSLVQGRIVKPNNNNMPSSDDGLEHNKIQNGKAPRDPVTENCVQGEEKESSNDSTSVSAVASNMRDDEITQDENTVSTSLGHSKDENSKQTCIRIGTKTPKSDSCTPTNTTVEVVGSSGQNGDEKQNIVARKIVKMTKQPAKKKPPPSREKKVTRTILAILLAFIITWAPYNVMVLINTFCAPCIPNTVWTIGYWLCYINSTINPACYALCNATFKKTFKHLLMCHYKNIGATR
Histamine H1 receptor (Homo sapiens), sequence (P35367 whole entry): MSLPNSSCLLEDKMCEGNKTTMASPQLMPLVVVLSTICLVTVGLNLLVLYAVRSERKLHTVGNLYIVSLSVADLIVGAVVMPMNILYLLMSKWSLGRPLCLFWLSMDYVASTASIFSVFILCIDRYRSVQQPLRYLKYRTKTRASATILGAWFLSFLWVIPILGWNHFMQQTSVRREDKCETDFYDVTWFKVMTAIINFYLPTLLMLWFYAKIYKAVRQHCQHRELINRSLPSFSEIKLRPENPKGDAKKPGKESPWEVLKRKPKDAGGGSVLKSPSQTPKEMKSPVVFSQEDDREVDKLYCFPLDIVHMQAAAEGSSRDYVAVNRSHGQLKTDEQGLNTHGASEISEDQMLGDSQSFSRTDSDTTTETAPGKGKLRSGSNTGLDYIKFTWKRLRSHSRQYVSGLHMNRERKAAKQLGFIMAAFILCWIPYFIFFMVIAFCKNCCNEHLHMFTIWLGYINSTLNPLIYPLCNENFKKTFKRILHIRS
Sodium-dependent noradrenaline transporter (Homo sapiens), sequence (P23975 whole entry): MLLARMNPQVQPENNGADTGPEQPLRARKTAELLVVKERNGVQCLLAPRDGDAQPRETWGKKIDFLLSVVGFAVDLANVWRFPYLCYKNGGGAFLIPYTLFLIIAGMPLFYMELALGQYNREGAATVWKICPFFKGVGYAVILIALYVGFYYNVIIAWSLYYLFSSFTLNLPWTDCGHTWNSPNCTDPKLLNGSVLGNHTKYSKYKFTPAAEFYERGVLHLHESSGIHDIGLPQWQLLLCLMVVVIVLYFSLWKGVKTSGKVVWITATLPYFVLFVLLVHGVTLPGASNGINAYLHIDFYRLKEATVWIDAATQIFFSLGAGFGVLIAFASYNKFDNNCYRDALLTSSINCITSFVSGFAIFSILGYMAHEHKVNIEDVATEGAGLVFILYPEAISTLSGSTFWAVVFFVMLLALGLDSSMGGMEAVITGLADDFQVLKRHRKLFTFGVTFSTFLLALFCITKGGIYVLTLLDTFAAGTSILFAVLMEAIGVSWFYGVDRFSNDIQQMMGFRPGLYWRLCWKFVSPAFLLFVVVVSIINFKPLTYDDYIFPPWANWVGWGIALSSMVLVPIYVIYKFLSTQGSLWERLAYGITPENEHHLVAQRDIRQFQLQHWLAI
Voltage-gated inwardly rectifying potassium channel KCNH2, sequence (Q12809 whole entry): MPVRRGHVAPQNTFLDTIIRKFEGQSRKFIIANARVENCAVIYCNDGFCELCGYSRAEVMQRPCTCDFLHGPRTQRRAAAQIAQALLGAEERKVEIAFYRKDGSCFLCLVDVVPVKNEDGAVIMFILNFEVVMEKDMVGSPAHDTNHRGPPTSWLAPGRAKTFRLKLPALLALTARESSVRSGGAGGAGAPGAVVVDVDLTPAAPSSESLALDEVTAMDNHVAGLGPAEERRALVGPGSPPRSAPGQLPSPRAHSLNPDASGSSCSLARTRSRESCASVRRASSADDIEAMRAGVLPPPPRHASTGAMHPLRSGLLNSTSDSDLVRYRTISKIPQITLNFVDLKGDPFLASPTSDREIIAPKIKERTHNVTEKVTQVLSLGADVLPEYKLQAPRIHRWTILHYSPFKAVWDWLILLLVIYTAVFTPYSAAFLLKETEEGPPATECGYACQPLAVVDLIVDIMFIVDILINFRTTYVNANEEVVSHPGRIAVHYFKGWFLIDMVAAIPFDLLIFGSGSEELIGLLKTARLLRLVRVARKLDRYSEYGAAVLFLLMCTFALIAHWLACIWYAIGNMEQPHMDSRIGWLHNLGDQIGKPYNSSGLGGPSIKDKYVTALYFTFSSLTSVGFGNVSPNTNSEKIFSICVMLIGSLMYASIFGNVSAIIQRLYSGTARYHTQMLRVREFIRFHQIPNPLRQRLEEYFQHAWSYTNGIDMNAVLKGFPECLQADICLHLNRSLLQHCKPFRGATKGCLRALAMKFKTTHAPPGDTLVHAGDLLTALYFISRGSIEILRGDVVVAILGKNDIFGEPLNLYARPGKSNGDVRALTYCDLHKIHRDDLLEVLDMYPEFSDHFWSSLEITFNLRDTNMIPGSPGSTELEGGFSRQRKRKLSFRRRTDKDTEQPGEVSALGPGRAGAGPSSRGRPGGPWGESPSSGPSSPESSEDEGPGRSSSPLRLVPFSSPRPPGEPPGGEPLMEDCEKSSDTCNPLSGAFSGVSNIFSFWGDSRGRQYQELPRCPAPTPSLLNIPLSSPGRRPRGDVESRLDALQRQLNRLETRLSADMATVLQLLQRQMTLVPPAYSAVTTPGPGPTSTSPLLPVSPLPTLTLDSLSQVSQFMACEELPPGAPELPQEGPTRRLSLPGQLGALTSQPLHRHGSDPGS

C[C@H](NC(=O)[C@H]1CCCCN1CCOc1ccccc1)c1ccc(C(=O)O)cc1.Cl
inhibition [1]: Active | Activity [2]: Active | inhibition [3]: inactive | IC50 (Cytochrome P450 1A2): > 10000 nM | IC50 (Cytochrome P450 2B6): > 10000 nM | IC50 (Cytochrome P450 2C19): > 10000 nM | IC50 (Cytochrome P450 2C8): > 10000 nM | IC50 (Cytochrome P450 2C9): > 10000 nM | IC50 (Cytochrome P450 2D6): > 10000 nM | IC50 (Cytochrome P450 3A4): > 10000 nM | inhibition [4]: -9% | inhibition [5]: 1% | inhibition [6]: -6% | inhibition [7]: 6% | inhibition [8]: 2% | inhibition [9]: -6% | inhibition [10]: 13% | inhibition [11]: 7% | inhibition [12]: -1% | inhibition [13]: 7% | inhibition [14]: 1% | inhibition [15]: 10% | inhibition at 10 µM [16]: -60% | inhibition at 10 µM [17]: -7% | inhibition at 10 µM [18]: 5% | inhibition (Rattus norvegicus): 6% | inhibition [19]: 7% | inhibition (INH) [20]: Not Active | solubility [21]: > 2000 µg/mL | solubility [22]: > 2000 µg/mL | solubility [23]: 1320 µg/mL | Tmax [24]: 15 min | bioavailability [25]: 81% | clearance [26]: 5.2 mL/min/kg | concentration at 12 h [27]: > 1000 nM | concentration at 24 h [28]: > 100 nM | IC50 [29]: > 25000 nM | Ki [29]: > 17500 nM | IC50 [30]: 1630 nM | IC50 [31]: > 25000 nM | Ki [31]: > 12700 nM

CC[C@H](NC(=O)[C@H]1CCCCN1CCOc1ccccc1)c1ccc(C(=O)O)cc1
IC50 [32]: 232 nM | Ki [32]: 129 nM | IC50 [33]: 14.4 nM | IC50 [34]: 291 nM

O=C(O)c1ccc(CNC(=O)[C@H]2CCCCN2CCOc2ccccc2)cc1
IC50 [32]: 203 nM | Ki [32]: 126 nM | IC50 [33]: 18.1 nM | IC50 [34]: 899 nM

O=C(O)c1ccc(C2(NC(=O)[C@H]3CCCCN3CCOc3ccccc3)CC2)cc1
IC50 [32]: 77.8 nM | Ki [32]: 44.8 nM | IC50 [33]: 5.42 nM | IC50 [34]: 586 nM

CCc1nc2c(C)nc(C)cc2n1-c1ccc(CCNC(=O)NS(=O)(=O)c2ccc(C)cc2)cc1 [GRAPIPRANT]
IC50 [32]: 689 nM | IC50 [34]: 1610 nM

C[C@H](NC(=O)[C@H]1CCCCN1CCOc1ccc(F)cc1)c1ccc(C(=O)O)cc1
IC50 [32]: 71.8 nM | Ki [32]: 40.4 nM | IC50 [33]: 2.87 nM | IC50 [34]: 121 nM

C[C@H](NC(=O)[C@H]1CCCCN1CCOc1ccc(C#N)cc1)c1ccc(C(=O)O)cc1
IC50 [32]: 621 nM | Ki [32]: 372 nM | IC50 [33]: 35.8 nM | IC50 [34]: 1210 nM
